This note sets out measurements from patent US20220402925A1, “COMPOUNDS AND METHODS FOR THE TREATMENT OF CYSTIC FIBROSIS” (Flatley Discovery Lab, LLC, priority 2019, published 2022).

In test [1] the target is T1, F508del CFTR (Homo sapiens, UniProt P13569, DEL508-508).
T1 construct: Primary CF airway epithelial cells were obtained from the UNC Cystic Fibrosis Tissue Procurement and Cell Culture Core; host or cells: primary CF airway epithelial cells
The test can be described thus: Equivalent current assay in primary CF airway epithelial cells (Corrector Activity, NAUC normalized to 3 μM VX809). In kind it is cell-based. Conditions: NAUC as % of positive control (VX-809). Put shortly:
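Differentiated primary CF airway cells treated basolaterally 24 h at 37° C with compound (0.1% DMSO). Equivalent current recorded after 5 μM benzamil, stimulation with 10 μM forskolin plus 1 μM VX-770 or 3 μM FDL176, and block by 20 μM CFTR-172; vehicle-subtracted AUC normalized to 3 μM VX809; EC50 from sigmoid fit, Hill slope 1.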

Test [2] has as its target T1, F508del CFTR. The test can be described thus: CoPo (corrector plus potentiator) equivalent current assay in primary CF airway epithelial cells, test compound added back as potentiator, no VX-770. Also noted: key: +++: NAUC>70% of positive control; ++: NAUC 70-40% of positive control; +: NAUC<40% of positive control; O: no positive response. In kind it is cell-based. Conditions: CoPo as % of positive control (VX-809 + acute VX-770). How it is done: It was noticed that many of the test compounds had potentiator activity in addition to corrector activity. These compounds have been denoted as CoPos by FDL and others. To measure both the corrector and potentiator activity of a compound the following changes were made to the test conditions. Cells were treated as usual with the test compounds for at least 24 hours before the experiment. 30 minutes prior to the experiment the test compound is added back to the testing solution to act as a potentiator and no VX-770 (the standard CFTR potentiator) was used with the test compound. The negative control was no longer just DMSO (no corrector) but changed to VX-809 (the standard corrector) plus VX-770 treatment for at least 24 hours. 30 minutes prior to the experiment both VX-809 and VX-770 were added back to the testing solution. This treatment led to a smaller response than the positive control of correcting F508del CFTR with VX-809 alone for at least 24 hours and adding VX-770 acutely with the forskolin addition (just as in the corrector assay).
A CoPo reading of zero means that the test compound has the same forskolin stimulated response as VX-809+VX-770 treatment for 24 hours. A CoPo reading of 1.0 means the test compound has the same forskolin response as cell treated with VX-809 and stimulated with forskolin+VX-770. CoPo activity “+++” refers to an observed CoPo>70% of positive control; CoPo activity “++” refers to an observed CoPo 70-40% of positive control; CoPo activity “+” refers to an observed CoPo<40% of positive control and “O” refers to no positive response.

T1 sequence (P13569 with tags, fused parts or gaps DEL508-508): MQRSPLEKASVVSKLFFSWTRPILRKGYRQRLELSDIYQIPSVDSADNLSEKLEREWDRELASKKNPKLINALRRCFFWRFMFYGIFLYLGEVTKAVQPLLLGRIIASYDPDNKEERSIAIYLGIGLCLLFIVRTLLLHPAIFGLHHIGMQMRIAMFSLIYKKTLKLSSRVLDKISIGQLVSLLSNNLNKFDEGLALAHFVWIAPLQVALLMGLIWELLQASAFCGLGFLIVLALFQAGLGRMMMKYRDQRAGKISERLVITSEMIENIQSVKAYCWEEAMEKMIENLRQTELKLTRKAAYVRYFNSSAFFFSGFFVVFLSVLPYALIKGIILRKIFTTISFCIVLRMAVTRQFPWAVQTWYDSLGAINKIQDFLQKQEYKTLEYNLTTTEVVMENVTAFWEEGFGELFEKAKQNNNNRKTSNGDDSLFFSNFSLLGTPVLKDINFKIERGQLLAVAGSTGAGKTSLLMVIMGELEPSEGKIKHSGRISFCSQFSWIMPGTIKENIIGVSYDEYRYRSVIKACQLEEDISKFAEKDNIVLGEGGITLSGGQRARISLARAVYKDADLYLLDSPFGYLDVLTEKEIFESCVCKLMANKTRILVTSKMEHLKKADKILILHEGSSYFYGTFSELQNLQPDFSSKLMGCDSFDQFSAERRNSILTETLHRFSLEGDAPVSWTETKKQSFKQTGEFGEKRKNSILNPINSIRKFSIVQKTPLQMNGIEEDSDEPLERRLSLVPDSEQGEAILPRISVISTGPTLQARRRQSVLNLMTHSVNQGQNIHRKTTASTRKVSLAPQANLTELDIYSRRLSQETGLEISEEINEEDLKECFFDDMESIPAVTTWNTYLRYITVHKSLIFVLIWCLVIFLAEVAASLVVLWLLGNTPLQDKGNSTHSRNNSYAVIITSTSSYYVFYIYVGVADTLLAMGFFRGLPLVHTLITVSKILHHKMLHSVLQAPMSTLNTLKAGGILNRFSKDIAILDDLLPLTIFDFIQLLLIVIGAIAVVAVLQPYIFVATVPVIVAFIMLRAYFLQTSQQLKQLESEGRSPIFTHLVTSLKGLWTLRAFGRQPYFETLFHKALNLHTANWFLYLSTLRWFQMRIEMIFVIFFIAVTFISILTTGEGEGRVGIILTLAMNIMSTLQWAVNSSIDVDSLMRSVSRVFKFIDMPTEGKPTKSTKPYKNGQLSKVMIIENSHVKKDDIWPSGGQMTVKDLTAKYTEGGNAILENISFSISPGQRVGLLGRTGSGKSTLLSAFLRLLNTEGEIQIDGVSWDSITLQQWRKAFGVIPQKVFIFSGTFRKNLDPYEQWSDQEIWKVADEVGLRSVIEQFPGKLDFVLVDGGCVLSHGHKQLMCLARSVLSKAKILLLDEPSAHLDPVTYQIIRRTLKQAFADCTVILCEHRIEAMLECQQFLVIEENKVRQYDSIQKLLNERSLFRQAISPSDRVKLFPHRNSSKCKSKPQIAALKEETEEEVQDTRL

As to `CN(C(=O)Cn1nc(-c2cccc(F)c2)c2c(c1=O)CCO2)c1ccc2c(c1)OC(F)(F)O2` [Example 160], on F508del CFTR [1], the “Corr Activity (NAUC)” value is reported as “++ (NAUC 70-40% of positive control)”. Further, the “CoPo Activity” value at F508del CFTR [2] is “+ (CoPo<40% of positive control)”.
For `CN(C(=O)Cn1nc(-c2cccc(Cl)c2)c2[nH]cnc2c1=O)c1ccc2c(c1)OC(F)(F)O2` [Example 22] the same measures were “++ (NAUC 70-40% of positive control)” and “O”.
`CCN(C(=O)Cn1nc(-c2cccc(C#N)c2)c2occc2c1=O)c1ccc2c(c1)OC(F)(F)O2` [Example 10]: the “Corr Activity (NAUC)” value at F508del CFTR [1] is “+++ (NAUC>70% of positive control)”. On F508del CFTR [2], the “CoPo Activity” value is given as “+++ (CoPo>70% of positive control)”.
Regarding `CN(C(=O)Cn1nc(-c2cccc(F)c2)c2occc2c1=O)c1ccc2c(c1)OC(F)(F)O2` [Example 8], the “Corr Activity (NAUC)” value on F508del CFTR [1] is on record as “+++ (NAUC>70% of positive control)”. In addition, the “CoPo Activity” value at F508del CFTR [2] was “++ (CoPo 70-40% of positive control)”.
For `CN(C(=O)Cn1nc(-c2cccc(C#N)c2)c2occc2c1=O)c1ccc2c(c1)OC(F)(F)O2` [Example 11] the same measures were “+++ (NAUC>70% of positive control)” and “+++ (CoPo>70% of positive control)”.
With `CN(C(=O)Cn1nc(-c2cccc(Cl)c2)c2occc2c1=O)c1ccc2c(c1)OC(F)(F)O2` [Example 9], the “Corr Activity (NAUC)” value at F508del CFTR [1] was “+++ (NAUC>70% of positive control)”. In addition, at F508del CFTR [2], the “CoPo Activity” value is “+++ (CoPo>70% of positive control)”.
For `CN(C(=O)Cn1nc(-c2cccc(C#N)c2)c2[nH]cnc2c1=O)c1ccc2c(c1)OC(F)(F)O2` [Example 23] the same measures were “+ (NAUC<40% of positive control)” and “+ (CoPo<40% of positive control)”.
Turning to `CCN(C(=O)Cn1nc(-c2cccc(C#N)c2)c2occc2c1=O)c1ccc2c(c1)CCC2` [Example 12], on F508del CFTR [1], the “Corr Activity (NAUC)” value is reported as “+++ (NAUC>70% of positive control)”. Moreover, the “CoPo Activity” value at F508del CFTR [2] is on record as “+++ (CoPo>70% of positive control)”.
In the case of `CCN(C(=O)Cn1nc(-c2cccc(F)c2)c2[nH]cnc2c1=O)c1ccc2c(c1)OC(F)(F)O2` [Example 25], the “Corr Activity (NAUC)” value at F508del CFTR [1] was “+++ (NAUC>70% of positive control)”. Besides, at F508del CFTR [2], the “CoPo Activity” value is on record as “+ (CoPo<40% of positive control)”.
On the same counts, the results for `CCN(C(=O)Cn1nc(-c2cccc(F)c2)c2c(c1=O)CCO2)c1ccc2c(c1)OC(F)(F)O2` [Example 161] are “+++ (NAUC>70% of positive control)” and “++ (CoPo 70-40% of positive control)”.
For `CN(C(=O)Cn1nc(-c2cccc(F)c2)c2nc[nH]c2c1=O)c1ccc2c(c1)OC(F)(F)O2` [Example 21] the same measures were “+ (NAUC<40% of positive control)” and “O”.
On the same counts, the results for `CCN(C(=O)Cn1nc(-c2cccc(C#N)c2)c2[nH]cnc2c1=O)c1ccc2c(c1)OC(F)(F)O2` [Example 24] are “+++ (NAUC>70% of positive control)” and “+++ (CoPo>70% of positive control)”.
Regarding `CCN(C(=O)Cn1nc(-c2ccc(C)c(CO)c2)c2[nH]cnc2c1=O)c1ccc2c(c1)OC(F)(F)O2` [Example 337], the “Corr Activity (NAUC)” value at F508del CFTR [1] is on record as “+ (NAUC<40% of positive control)”.
For `CCN(C(=O)Cn1nc(-c2cc(C#N)cc(C(F)(F)F)c2)c2[nH]cnc2c1=O)c1ccc2c(c1)OC(F)(F)O2` [Example 281], at F508del CFTR [1], the “Corr Activity (NAUC)” value was “+++ (NAUC>70% of positive control)”.
On the same count and under the same terms, for `CN(C(=O)Cn1nc(-c2cccc(Cl)c2)c2oc(C3CC3)cc2c1=O)c1ccc2c(c1)OC(F)(F)O2` [Example 219] the value was “+++ (NAUC>70% of positive control)”.
As for `Cc1nc2ccc(N(C)C(=O)Cn3nc(-c4cccc(C#N)c4)c4oc(C(=O)NC(C)C)cc4c3=O)cc2o1` [Example 156], the “Corr Activity (NAUC)” value on F508del CFTR [1] was “++ (NAUC 70-40% of positive control)”.
